Data from ChEMBL document CHEMBL5528054, “Novel Cocrystal Structures of Peptide Antagonists Bound to the Human Melanocortin Receptor 4 Unveil Unexplored Grounds for Structure-Based Drug Design” (J Med Chem, 2024).

Key:
[1] = biological target: T1, Melanocyte-stimulating hormone receptor (Homo sapiens, UniProt Q01726); assay: Partial agonist activity at C-terminal HA-tagged human MC1-R stably expressed in HEK293 cells co-expressing GScAMP22P cAMP reporter assessed as inhibition of alpha-MSH induced cAMP production by cell based luminescence assay; format: functional
Target sequence in this assay (Q01726 whole entry): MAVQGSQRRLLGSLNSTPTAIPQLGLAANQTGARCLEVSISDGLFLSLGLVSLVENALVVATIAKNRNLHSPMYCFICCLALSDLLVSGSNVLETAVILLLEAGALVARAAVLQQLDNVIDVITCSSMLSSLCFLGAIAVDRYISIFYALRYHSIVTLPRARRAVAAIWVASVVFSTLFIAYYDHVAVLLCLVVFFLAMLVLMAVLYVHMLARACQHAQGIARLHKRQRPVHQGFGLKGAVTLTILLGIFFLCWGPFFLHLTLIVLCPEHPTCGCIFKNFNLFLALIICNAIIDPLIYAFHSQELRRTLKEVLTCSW

[2] = biological target: T1, Melanocyte-stimulating hormone receptor; assay: Partial agonist activity at C-terminal HA-tagged human MC1-R stably expressed in HEK293 cells co-expressing GScAMP22P cAMP reporter assessed as inhibition of alpha-MSH induced cAMP production by cell based luminescence assay relative to control; format: functional; set-up: concentration or dose not given beside the values; details: filed as partial agonist, concentration not given here
Target sequence in this assay (Q01726 whole entry, looked up): as the sequence (Q01726 whole entry) above

[3] = tested on: HEK293; assay: (§1) Selectivity ratio of IC50 for C-terminal HA-tagged human MC4-R stably expressed in HEK293 cells co-expressing GScAMP22P cAMP reporter assessed as inhibition of alpha-MSH induced cAMP production to IC50 for C-terminal HA-tagged human MC1-R stably expressed in HEK293 cells co-expressing GScAMP22P cAMP reporter assessed as inhibition of alpha-MSH induced cAMP production; format: cell-based
[4] = tested on: HEK293; assay: as §1, with “MC3-R” for “MC1-R”; format: cell-based
[5] = biological target: Melanocortin receptor 4 (Homo sapiens, UniProt P32245); assay: Antagonist activity at C-terminal HA-tagged human MC4-R stably expressed in HEK293 cells co-expressing GScAMP22P cAMP reporter assessed as inhibition of alpha-MSH induced cAMP production by cell based luminescence assay; format: functional; details: read-out: IC50
[6] = biological target: Melanocortin receptor 3 (Homo sapiens, UniProt P41968); assay: Antagonist activity at C-terminal HA-tagged human MC3-R stably expressed in HEK293 cells co-expressing GScAMP22P cAMP reporter assessed as inhibition of alpha-MSH induced cAMP production by cell based luminescence assay; format: functional; details: read-out: IC50
Melanocortin receptor 3, sequence (P41968 whole entry): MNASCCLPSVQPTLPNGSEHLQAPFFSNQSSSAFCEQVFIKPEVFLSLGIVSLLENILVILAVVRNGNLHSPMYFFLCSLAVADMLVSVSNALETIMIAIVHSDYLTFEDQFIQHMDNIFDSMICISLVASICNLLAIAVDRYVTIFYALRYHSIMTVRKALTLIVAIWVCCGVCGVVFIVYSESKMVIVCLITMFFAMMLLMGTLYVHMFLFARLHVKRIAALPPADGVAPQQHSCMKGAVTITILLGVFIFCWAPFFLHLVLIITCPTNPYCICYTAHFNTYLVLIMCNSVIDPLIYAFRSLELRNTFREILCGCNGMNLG

Melanocortin receptor 4, sequence (P32245 whole entry): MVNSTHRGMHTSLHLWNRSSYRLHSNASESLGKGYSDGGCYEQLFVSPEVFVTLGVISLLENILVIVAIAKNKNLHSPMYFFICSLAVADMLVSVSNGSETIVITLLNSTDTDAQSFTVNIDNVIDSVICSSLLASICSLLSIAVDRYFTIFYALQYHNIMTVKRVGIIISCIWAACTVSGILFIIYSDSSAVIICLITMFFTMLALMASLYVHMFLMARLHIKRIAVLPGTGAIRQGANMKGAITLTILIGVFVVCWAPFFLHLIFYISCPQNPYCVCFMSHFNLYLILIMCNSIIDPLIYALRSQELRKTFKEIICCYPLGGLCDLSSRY

| SMILES | IC50 [1] | inhibition [2] | further results |
| --- | --- | --- | --- |
| CCCCCC(=O)N[C@H]1C[C@H]2C(=O)N[C@H](Cc3ccc4ccccc4c3)C(=O)N[C@@H](CCCNC(=N)N)C(=O)N[C@@H](Cc3c[nH]c4ccccc34)C(=O)NCC(=O)N[C@H](C(N)=O)CCCCNC(=O)C[C@H](NC(=O)[C@H](CCCC)NC(C)=O)C(=O)N2C1 | 10.1 nM |  |  |
| CCCC[C@H](NC(C)=O)C(=O)N[C@H]1CC(=O)NCCCC[C@@H](C(N)=O)NC(=O)CNC(=O)[C@H](Cc2c[nH]c3ccccc23)NC(=O)[C@H](CCCNC(=N)N)NC(=O)[C@@H](Cc2ccc3ccccc3c2)NC(=O)[C@@H]2C[C@H](n3cc(CCN)nn3)CN2C1=O | 1.71 nM | 85.5% | Ratio IC50 [3]: 0.4; Ratio IC50 [4]: 9.5; IC50 [5]: 4.48 nM; IC50 [6]: 42.5 nM |
| CCCCC(NC(C)=O)C(=O)N[C@H]1CC(=O)NCCCC[C@@H](C(N)=O)NC(=O)CNC(=O)[C@H](Cc2c[nH]c3ccccc23)NC(=O)[C@H](CCCNC(=N)N)NC(=O)[C@@H](Cc2ccc3ccccc3c2)NC(=O)[C@@H]2C[C@@H](n3cc(CCCNC(=N)N)nn3)CN2C1=O (stereo not given in full) |  | 84.7% | Ratio IC50 [3]: 0.1; Ratio IC50 [4]: 5.8 |
| CCCC[C@H](NC(C)=O)C(=O)N[C@H]1CC(=O)NCCCC[C@@H](C(N)=O)NC(=O)CNC(=O)[C@H](Cc2c[nH]c3ccccc23)NC(=O)[C@H](CCCNC(=N)N)NC(=O)[C@@H](Cc2ccc3ccccc3c2)NC(=O)[C@@H]2C[C@@H](NC(=O)CCNC(=N)N)CN2C1=O | 0.08 nM | 76.4% |  |
| CCCC[C@H](NC(C)=O)C(=O)N[C@H]1CC(=O)NCCCC[C@@H](C(N)=O)NC(=O)CNC(=O)[C@H](Cc2c[nH]c3ccccc23)NC(=O)[C@H](CCCNC(=N)N)NC(=O)[C@@H](Cc2ccc3ccccc3c2)NC(=O)[C@@H]2C[C@H](NC(=O)Cc3ccccc3)CN2C1=O | 13.5 nM | 90.1% |  |
| CCCC[C@H](NC(C)=O)C(=O)N[C@H]1CC(=O)NCCCC[C@@H](C(N)=O)NC(=O)CNC(=O)[C@H](Cc2c[nH]c3ccccc23)NC(=O)[C@H](CCCNC(=N)N)NC(=O)[C@@H](Cc2ccc3ccccc3c2)NC(=O)[C@@H]2C[C@@H](n3cc(-c4ccccn4)nn3)CN2C1=O |  |  | IC50 ([1]; hek293): 213 nM; IC50 ([5]; hek293): 4.01 nM; IC50 ([6]; hek293): 6.35 nM |
| CCCC[C@H](NC(C)=O)C(=O)N[C@H]1CC(=O)NCCCC[C@@H](C(N)=O)NC(=O)[C@H](CCCN)NC(=O)[C@H](Cc2c[nH]c3ccccc23)NC(=O)[C@H](CCCNC(=N)N)NC(=O)[C@@H](Cc2ccc3ccccc3c2)NC(=O)[C@@H]2CCCN2C1=O | 363 nM | 83.8% |  |
| CCCCC(NC(C)=O)C(=O)N[C@H]1CC(=O)NCCCC[C@@H](C(N)=O)NC(=O)CNC(=O)[C@H](Cc2c[nH]c3ccccc23)NC(=O)[C@H](CCCNC(=N)N)NC(=O)[C@@H](Cc2ccc3ccccc3c2)NC(=O)[C@@H]2C[C@@H](n3cc(-c4ccccn4)nn3)CN2C1=O (stereo not given in full) |  | 88.4% | Ratio IC50 [3]: 53; Ratio IC50 [4]: 1.6 |
| CCCC[C@H](NC(C)=O)C(=O)N[C@H]1CC(=O)NCCCC[C@@H](C(N)=O)NC(=O)[C@H](CCCCNC(=N)NCCC(=O)O)NC(=O)[C@H](Cc2c[nH]c3ccccc23)NC(=O)[C@H](CCCNC(=N)N)NC(=O)[C@@H](Cc2ccc3ccccc3c2)NC(=O)[C@@H]2CCCN2C1=O | 608 nM | 83.2% |  |
| CCCC[C@H](NC(C)=O)C(=O)N[C@H]1CC(=O)NCCCC[C@@H](C(N)=O)NC(=O)[C@H](CCCCNC(=N)N)NC(=O)[C@H](Cc2c[nH]c3ccccc23)NC(=O)[C@H](CCCNC(=N)N)NC(=O)[C@@H](Cc2ccc3ccccc3c2)NC(=O)[C@@H]2CCCN2C1=O | 816 nM | 90.6% |  |
| CCCC[C@H](NC(C)=O)C(=O)N[C@H]1CC(=O)NCCCC[C@@H](C(N)=O)NC(=O)CNC(=O)[C@H](Cc2c[nH]c3ccccc23)NC(=O)[C@H](CCCNC(=N)N)NC(=O)[C@@H](Cc2ccc3ccccc3c2)NC(=O)[C@@H]2C[C@H](n3cc(CCNC(=N)N)nn3)CN2C1=O | 5.09 nM | 85.9% |  |
| CC(=O)N[C@H](CCCN)C(=O)N[C@H]1CC(=O)NCCCC[C@@H](C(N)=O)NC(=O)[C@H](CCCNC(=N)N)NC(=O)[C@H](Cc2c[nH]c3ccccc23)NC(=O)[C@H](CCCNC(=N)N)NC(=O)[C@@H](Cc2ccc3ccccc3c2)NC(=O)[C@@H]2CCCN2C1=O | 3060 nM | 73.7% |  |
| CCCC[C@H](NC(C)=O)C(=O)N[C@H]1CC(=O)NCCCC[C@@H](C(N)=O)NC(=O)CNC(=O)[C@H](Cc2c[nH]c3ccccc23)NC(=O)[C@H](CCCNC(=N)N)NC(=O)[C@@H](Cc2ccc3ccccc3c2)NC(=O)[C@@H]2C[C@H](NC(=O)CCNC(=N)N)CN2C1=O | 0.12 nM | 78.6% |  |
| CCCC[C@H](NC(C)=O)C(=O)N[C@H]1CC(=O)NCCCC[C@@H](C(N)=O)NC(=O)CNC(=O)[C@H](Cc2c[nH]c3ccccc23)NC(=O)[C@H](CCCNC(=N)N)NC(=O)[C@@H](Cc2ccc3ccccc3c2)NC(=O)[C@@H]2C[C@H](n3cc(C4CCCCC4)nn3)CN2C1=O | 77.4 nM | 89.5% | IC50 [6]: 56.8 nM |
| CCCC[C@H](NC(C)=O)C(=O)N[C@H]1CC(=O)NCCCC[C@@H](C(N)=O)NC(=O)[C@H](CCCCNC(=N)NCCN)NC(=O)[C@H](Cc2c[nH]c3ccccc23)NC(=O)[C@H](CCCNC(=N)N)NC(=O)[C@@H](Cc2ccc3ccccc3c2)NC(=O)[C@@H]2CCCN2C1=O | 15.4 nM | 85.3% |  |
| CCCC[C@H](NC(C)=O)C(=O)N[C@H]1CC(=O)NCCCC[C@@H](C(N)=O)NC(=O)[C@H](CCCCNC(=N)N(CCC)CCC)NC(=O)[C@H](Cc2c[nH]c3ccccc23)NC(=O)[C@H](CCCNC(=N)N)NC(=O)[C@@H](Cc2ccc3ccccc3c2)NC(=O)[C@@H]2CCCN2C1=O | 175 nM | 88.7% |  |
| CCCC[C@H](NC(C)=O)C(=O)N[C@H]1CC(=O)NCCCC[C@@H](C(N)=O)NC(=O)CNC(=O)[C@H](Cc2c[nH]c3ccccc23)NC(=O)[C@H](CCCNC(=N)N)NC(=O)[C@@H](Cc2ccc3ccccc3c2)NC(=O)[C@@H]2C[C@@H](n3cc(CCCNC(=N)N)nn3)CN2C1=O |  |  | IC50 ([1]; hek293): 0.49 nM; IC50 ([5]; hek293): 3.26 nM; IC50 ([6]; hek293): 18.8 nM |
| CC(=O)N[C@H](CCCNC(=N)N)C(=O)N[C@H]1CC(=O)NCCCC[C@@H](C(N)=O)NC(=O)[C@H](CCCNC(=N)N)NC(=O)[C@H](Cc2c[nH]c3ccccc23)NC(=O)[C@H](CCCNC(=N)N)NC(=O)[C@@H](Cc2ccc3ccccc3c2)NC(=O)[C@@H]2CCCN2C1=O | 1240 nM | 94.6% |  |
| CCCC[C@H](NC(C)=O)C(=O)N[C@H]1CC(=O)NCCCC[C@@H](C(N)=O)NC(=O)[C@H](Cc2c[nH]c3ccccc23)NC(=O)[C@H](CCCNC(=N)N)NC(=O)[C@@H](Cc2ccc3ccccc3c2)NC(=O)[C@H](Cc2c[nH]cn2)NC1=O |  | 76% |  |
| CCCC[C@H](NC(C)=O)C(=O)N[C@H]1CC(=O)NCCCC[C@@H](C(N)=O)NC(=O)[C@H](CCCNC(N)=O)NC(=O)[C@H](Cc2c[nH]c3ccccc23)NC(=O)[C@H](CCCNC(=N)N)NC(=O)[C@@H](Cc2ccc3ccccc3c2)NC(=O)[C@@H]2CCCN2C1=O | 575 nM | 91.2% |  |
| CCCC[C@H](NC(C)=O)C(=O)N[C@H]1CC(=O)NCCCC[C@@H](C(N)=O)NC(=O)CNC(=O)[C@H](Cc2c[nH]c3ccccc23)NC(=O)[C@H](CCCNC(=N)N)NC(=O)[C@@H](Cc2ccc3ccccc3c2)NC(=O)[C@@H]2C[C@@H](n3cc(C(C)(C)N)nn3)CN2C1=O |  |  | IC50 ([1]; hek293): 1.53 nM; IC50 ([5]; hek293): 4.34 nM; IC50 ([6]; hek293): 72.4 nM |
| CCCC[C@H](NC(C)=O)C(=O)N[C@H]1CC(=O)NCCCC[C@@H](C(N)=O)NC(=O)[C@H](CCCCNC(=N)NCCC)NC(=O)[C@H](Cc2c[nH]c3ccccc23)NC(=O)[C@H](CCCNC(=N)N)NC(=O)[C@@H](Cc2ccc3ccccc3c2)NC(=O)[C@@H]2CCCN2C1=O | 75 nM | 86.2% |  |
| CCCC[C@H](NC(C)=O)C(=O)N[C@H]1CC(=O)NCCCC[C@@H](C(N)=O)NC(=O)[C@H](CCCCNC(=N)NCc2ccccc2)NC(=O)[C@H](Cc2c[nH]c3ccccc23)NC(=O)[C@H](CCCNC(=N)N)NC(=O)[C@@H](Cc2ccc3ccccc3c2)NC(=O)[C@@H]2CCCN2C1=O | 92 nM | 89.6% |  |
| CCCC[C@H](NC(C)=O)C(=O)N[C@H]1CC(=O)NCCCC[C@@H](C(N)=O)NC(=O)[C@H](Cc2ccc(NC(=N)N)cc2)NC(=O)[C@H](Cc2c[nH]c3ccccc23)NC(=O)[C@H](CCCNC(=N)N)NC(=O)[C@@H](Cc2ccc3ccccc3c2)NC(=O)[C@@H]2CCCN2C1=O | 90 nM | 88.6% |  |
| CCCC[C@H](NC(C)=O)C(=O)N[C@H]1CC(=O)NCCCC[C@@H](C(N)=O)NC(=O)CNC(=O)[C@H](Cc2c[nH]c3ccccc23)NC(=O)[C@H](CCCNC(=N)N)NC(=O)[C@@H](Cc2ccc3ccccc3c2)NC(=O)[C@@H]2C[C@H](NC(=O)c3ccccc3)CN2C1=O | 22.5 nM | 90.9% |  |
| CCCC[C@H](NC(C)=O)C(=O)N[C@H]1CC(=O)NCCCC[C@@H](C(N)=O)NC(=O)[C@H](CCCCN)NC(=O)[C@H](Cc2c[nH]c3ccccc23)NC(=O)[C@H](CCCNC(=N)N)NC(=O)[C@@H](Cc2ccc3ccccc3c2)NC(=O)[C@@H]2CCCN2C1=O | 158 nM | 81.6% |  |
